Source: ChEMBL document CHEMBL4715717, “Analysis of the aplyronine A-induced protein-protein interaction between actin and tubulin by surface plasmon resonance” (Bioorg Med Chem, 2016)
Activity calls are given as the source filed them. The rule behind the calls is not given here.

Columns and labels:
Homo sapiens [1] = species: Homo sapiens; test: Inhibition of aplyronine A-actin complex-tubulin (unknown origin) protein-protein interaction at 1 equivalent by SPR analysis
[2] = target: Actin, alpha skeletal muscle (Oryctolagus cuniculus, UniProt P68135); test: Induction of rabbit skeletal muscle actin depolymerization measured after 120 mins by fluorescence assay
Homo sapiens [3] = species: Homo sapiens; test: Binding affinity to streptavidin immobilized actin (unknown origin) assessed as on rate constant by SPR analysis
[4] = Binding affinity to streptavidin immobilized actin (unknown origin) assessed as dissociation constant by SPR analysis; set-up: species or system Homo sapiens
HeLa S3 = test: Cytotoxicity against human HeLa S3 cells assessed as reduction in cell viability measured after 96 hrs by MTT assay; format: functional, cell-based; conditions: HeLa S3, 96 h
[5] = Binding affinity to streptavidin immobilized actin (unknown origin) assessed as off rate constant by SPR analysis; set-up: species or system Homo sapiens
Homo sapiens [6] = species: Homo sapiens; test: Induction of aplyronine A-actin complex-tubulin (unknown origin) protein-protein interaction assessed as association of actin-aplyronine A-tubulin complex by SPR analysis
Homo sapiens [7] = species: Homo sapiens; test: Induction of aplyronine A-actin complex-tubulin (unknown origin) protein-protein interaction assessed as actin-aplyronine A-tubulin ternary complex formation by SPR analysis
Homo sapiens [8] = species: Homo sapiens; test: Binding affinity to actin (unknown origin) assessed as dissociation constant for actin-compound-tubulin heterodimer complex at 8 degreeC
Homo sapiens [9] = species: Homo sapiens; test: Binding affinity to actin (unknown origin) assessed as thermal stability of actin-compound-tubulin heterodimer complex at 25 degreeC
Homo sapiens [10] = species: Homo sapiens; test: Binding affinity to actin (unknown origin) assessed as 1:1:1 ratio of actin-compound-tubulin heterodimer complex formation by measuring molecular weight in presence of 9:1 ratio of native/biotinylated tubulin by gel permeation HPLC analysis
[11] = Binding affinity to actin (unknown origin) assessed as off rate constant for actin-compound-tubulin heterodimer complex; set-up: species or system Homo sapiens
[12] = Binding affinity to actin (unknown origin) assessed as dissociation constant for actin-compound-tubulin heterodimer complex at 25 degreeC; set-up: species or system Homo sapiens
Homo sapiens [13] = species: Homo sapiens; test: Binding affinity to actin (unknown origin) assessed as thermal stability of actin-compound-immobilized tubulin heterodimer complex
Homo sapiens [14] = species: Homo sapiens; test: Binding affinity to actin (unknown origin) assessed as 1:1:1 ratio of actin-compound-tubulin heterodimer complex formation by measuring peak time in presence of 9:1 ratio of native/biotinylated tubulin by gel permeation HPLC analysis
Homo sapiens [15] = species: Homo sapiens; test: Induction of immobilized actin-tubulin (unknown origin) protein-protein interaction by SPR analysis
Homo sapiens [16] = species: Homo sapiens; test: Binding affinity to actin (unknown origin) assessed as on rate constant for actin-compound-tubulin heterodimer complex
Homo sapiens [17] = species: Homo sapiens; test: Induction of microtubule (unknown origin) depolymerization pretreated with paclitaxel followed by compound treatment measured after 1 hr in presence of native and biotinylated tubulin and actin by ultracentrifugation

SMILES	Ka (Homo sapiens [3])	Kd [4] [nM]	Kd [5]	inhibition (Homo sapiens [1]) [%]	Kd [2] [nM]	IC50 (HeLa S3) [nM]	further results
COC[C@@H](OC)C(=O)O[C@H](CC[C@H](C)[C@H](C[C@@H]1OC(=O)C[C@@H](O)C/C=C/C(=O)[C@H](C)[C@H](OC)c2coc(n2)-c2coc(n2)-c2coc(n2)/C=C/C[C@H](OC)[C@H]1C)OC)[C@H](C)[C@H](OC(C)=O)[C@H](C)/C=C/N(C)C=O	–	–	–	100	13	–	–
C/C1=C/C(=O)O[C@@H]2C[C@@H](CC[C@H](C)/C=C\C=C\CC1)O[C@@](O)([C@@H]1CSC(=O)N1)C2	–	–	–	–	–	–	Activity (Homo sapiens [6]): Active; Activity (Homo sapiens [7]): Active
COCC(C(=O)O[C@@H]1C/C=C/C=C/C(=O)O[C@H]([C@@H](C)[C@@H](O)[C@@H](C)CC[C@@H](OC(=O)C(C)N(C)C)[C@H](C)[C@H](OC(C)=O)[C@H](C)/C=C/N(C)C=O)C/C=C/[C@H](OC)C[C@H](C)C/C=C(\C)[C@@H](OC)CC[C@@H](C)[C@@H](O)[C@@H]1C)N(C)C (some centres not stated) [APLYRONINE A]	–	–	–	100	100	0.01	Ka (Homo sapiens [8]): 3 10^6/M; Activity (Homo sapiens [9]): inactive; Activity (Homo sapiens [10]): 145 kDa; Kd [11]: 8.82 10^-2/s; Kd [12]: 1840 nM; Activity (Homo sapiens [13]): inactive; TIME (Homo sapiens [14]): 0.265 h; Activity (Homo sapiens [15]): inactive; Ka (Homo sapiens [16]): 4.78 10^4/M/s; Activity (Homo sapiens [17]): Active
CO[C@H]1CC[C@@H](C)[C@@H](O)[C@H](C)[C@H](O)C/C=C/C=C/C(=O)O[C@H]([C@@H](C)[C@@H](O)[C@@H](C)CC[C@@H](OC(=O)C(C)N(C)C)[C@H](C)[C@H](OC(C)=O)[C@H](C)/C=C/N(C)C=O)C/C=C/[C@H](OC)C[C@H](C)C/C=C/1C (some centres not stated) [APLYRONINE C]	–	–	–	100	–	17	–

Continued, in another order:

Ka (Homo sapiens [3])	Kd [4] [nM]	Kd [5]	SMILES	inhibition (Homo sapiens [1]) [%]	Kd [2] [nM]	IC50 (HeLa S3) [nM]	further results
4.54 10^3/M/s	4020	1.83 10^-2/s	COCC(C(=O)O[C@@H]1C/C=C/C=C/C(=O)O[C@H]([C@@H](C)[C@@H](O)[C@@H](C)CC[C@@H](OC(=O)C(C)N(C)C)[C@H](C)[C@H](OC(C)=O)[C@H](C)C/C=N/NC(=O)CCOCCOCCOCCOCCNC(=O)CCCC[C@@H]2SC[C@@H]3NC(=O)N[C@@H]32)C/C=C/[C@H](OC)C[C@H](C)C/C=C(\C)[C@@H](OC)CC[C@@H](C)[C@@H](O)[C@@H]1C)N(C)C (some centres not stated)	–	–	0.096	–
8.38 10^2/M/s	18000	1.51 10^-2/s	CO[C@H]1CC[C@@H](C)[C@@H](O)[C@H](C)[C@H](O)C/C=C/C=C/C(=O)O[C@H]([C@@H](C)[C@@H](O)[C@@H](C)CC[C@@H](OC(=O)C(C)N(C)C)[C@H](C)[C@H](OC(C)=O)[C@H](C)C/C=N/NC(=O)CCOCCOCCOCCOCCNC(=O)CCCC[C@@H]2SC[C@@H]3NC(=O)N[C@@H]32)C/C=C/[C@H](OC)C[C@H](C)C/C=C/1C (some centres not stated)	–	–	700	–
